Experiments:
[1] = Antagonist activity at human recombinant mGlu7 stably expressed in golden hamster AV12 cell membrane co-expressing Galpha15 assessed as reduction in glutamate-induced calcium influx incubated for 90 to 120 min by Fluo-4-AM dye based FLIPR assay; type: cell membranes
[2] = biological target: T1, Metabotropic glutamate receptor 6 (Homo sapiens, UniProt O15303); assay: Agonist activity at human recombinant mGlu6 stably expressed in golden hamster AV12 cell membrane co-expressing Galpha15 assessed as assessed as increase in calcium influx incubated for 90 to 120 min by Fluo-4-AM dye based FLIPR assay; type: functional, cell membranes
T1 sequence (O15303 whole entry): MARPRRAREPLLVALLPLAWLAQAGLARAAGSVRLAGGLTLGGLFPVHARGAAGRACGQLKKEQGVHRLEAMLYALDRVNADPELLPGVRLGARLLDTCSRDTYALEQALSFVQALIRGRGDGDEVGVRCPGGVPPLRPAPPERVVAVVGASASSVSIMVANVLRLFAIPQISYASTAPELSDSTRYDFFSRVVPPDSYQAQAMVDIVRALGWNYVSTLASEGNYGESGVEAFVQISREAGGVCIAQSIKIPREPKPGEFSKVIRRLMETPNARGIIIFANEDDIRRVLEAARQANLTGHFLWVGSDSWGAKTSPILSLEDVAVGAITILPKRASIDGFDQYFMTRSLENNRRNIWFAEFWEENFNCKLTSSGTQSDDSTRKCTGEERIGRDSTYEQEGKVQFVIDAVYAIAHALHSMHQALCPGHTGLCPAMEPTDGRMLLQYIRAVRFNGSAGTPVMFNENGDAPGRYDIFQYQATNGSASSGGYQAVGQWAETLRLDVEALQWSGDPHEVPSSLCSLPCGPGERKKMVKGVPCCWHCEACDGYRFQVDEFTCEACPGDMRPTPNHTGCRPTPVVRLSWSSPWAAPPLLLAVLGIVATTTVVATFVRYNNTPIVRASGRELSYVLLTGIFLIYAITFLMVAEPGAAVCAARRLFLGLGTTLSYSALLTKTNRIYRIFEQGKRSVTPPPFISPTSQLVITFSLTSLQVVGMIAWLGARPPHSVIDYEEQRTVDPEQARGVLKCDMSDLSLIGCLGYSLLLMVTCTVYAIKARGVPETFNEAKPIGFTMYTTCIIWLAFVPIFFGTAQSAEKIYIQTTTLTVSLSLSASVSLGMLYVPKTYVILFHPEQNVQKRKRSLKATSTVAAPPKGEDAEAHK

[3] = Agonist activity at human recombinant mGlu7 stably expressed in golden hamster AV12 cell membrane co-expressing Galpha15 assessed as assessed as increase in calcium influx incubated for 90 to 120 min by Fluo-4-AM dye based FLIPR assay; type: cell membranes
[4] = biological target: T2, Metabotropic glutamate receptor 3 (Homo sapiens, UniProt Q14832); assay: Displacement of [3H]-LY459477 from recombinant human mGlu3 receptor expressed in hamster AV12 cell membranes co-expressing rat EAAT1 incubated for 90 mins by top count scintillation method; design: species or system Cell membrane
T2 sequence (Q14832 whole entry): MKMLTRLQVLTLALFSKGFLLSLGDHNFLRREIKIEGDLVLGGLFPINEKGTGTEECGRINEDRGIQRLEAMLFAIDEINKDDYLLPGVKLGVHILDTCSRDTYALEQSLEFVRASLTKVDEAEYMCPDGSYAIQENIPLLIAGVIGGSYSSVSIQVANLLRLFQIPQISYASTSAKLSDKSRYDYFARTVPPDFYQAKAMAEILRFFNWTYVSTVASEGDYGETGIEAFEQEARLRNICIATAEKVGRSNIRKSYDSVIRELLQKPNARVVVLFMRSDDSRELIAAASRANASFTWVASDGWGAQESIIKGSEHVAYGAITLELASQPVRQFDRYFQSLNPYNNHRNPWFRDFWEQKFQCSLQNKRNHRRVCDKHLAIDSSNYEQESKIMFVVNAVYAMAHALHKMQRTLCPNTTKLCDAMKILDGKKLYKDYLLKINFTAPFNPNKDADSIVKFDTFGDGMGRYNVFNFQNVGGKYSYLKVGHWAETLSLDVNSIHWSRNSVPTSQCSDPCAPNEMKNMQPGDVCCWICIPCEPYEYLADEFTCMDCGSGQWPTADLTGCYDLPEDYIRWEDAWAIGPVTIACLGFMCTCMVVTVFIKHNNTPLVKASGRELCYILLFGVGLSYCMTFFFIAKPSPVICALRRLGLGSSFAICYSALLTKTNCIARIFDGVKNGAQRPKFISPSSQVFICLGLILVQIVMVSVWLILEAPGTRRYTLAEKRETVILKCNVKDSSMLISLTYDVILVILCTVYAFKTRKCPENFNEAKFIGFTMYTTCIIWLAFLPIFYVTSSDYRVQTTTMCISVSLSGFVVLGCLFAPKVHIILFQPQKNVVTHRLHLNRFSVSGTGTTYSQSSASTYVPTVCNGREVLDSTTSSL

[5] = biological target: T2, Metabotropic glutamate receptor 3; assay: Antagonist activity at human recombinant mGlu3 stably expressed in golden hamster AV12 cell membrane co-expressing Galpha15 assessed as assessed as reduction in glutamate-induced calcium influx incubated for 90 to 120 min by Fluo-4-AM dye based FLIPR assay; type: functional, cell membranes
[6] = biological target: T3, Metabotropic glutamate receptor 1 (Homo sapiens, UniProt Q13255); assay: Agonist activity at human recombinant mGlu1 stably expressed in golden hamster AV12 cell membrane co-expressing Gq assessed as assessed as increase in calcium influx incubated for 90 to 120 min by Fluo-4-AM dye based FLIPR assay; type: functional, cell membranes
T3 sequence (Q13255 whole entry): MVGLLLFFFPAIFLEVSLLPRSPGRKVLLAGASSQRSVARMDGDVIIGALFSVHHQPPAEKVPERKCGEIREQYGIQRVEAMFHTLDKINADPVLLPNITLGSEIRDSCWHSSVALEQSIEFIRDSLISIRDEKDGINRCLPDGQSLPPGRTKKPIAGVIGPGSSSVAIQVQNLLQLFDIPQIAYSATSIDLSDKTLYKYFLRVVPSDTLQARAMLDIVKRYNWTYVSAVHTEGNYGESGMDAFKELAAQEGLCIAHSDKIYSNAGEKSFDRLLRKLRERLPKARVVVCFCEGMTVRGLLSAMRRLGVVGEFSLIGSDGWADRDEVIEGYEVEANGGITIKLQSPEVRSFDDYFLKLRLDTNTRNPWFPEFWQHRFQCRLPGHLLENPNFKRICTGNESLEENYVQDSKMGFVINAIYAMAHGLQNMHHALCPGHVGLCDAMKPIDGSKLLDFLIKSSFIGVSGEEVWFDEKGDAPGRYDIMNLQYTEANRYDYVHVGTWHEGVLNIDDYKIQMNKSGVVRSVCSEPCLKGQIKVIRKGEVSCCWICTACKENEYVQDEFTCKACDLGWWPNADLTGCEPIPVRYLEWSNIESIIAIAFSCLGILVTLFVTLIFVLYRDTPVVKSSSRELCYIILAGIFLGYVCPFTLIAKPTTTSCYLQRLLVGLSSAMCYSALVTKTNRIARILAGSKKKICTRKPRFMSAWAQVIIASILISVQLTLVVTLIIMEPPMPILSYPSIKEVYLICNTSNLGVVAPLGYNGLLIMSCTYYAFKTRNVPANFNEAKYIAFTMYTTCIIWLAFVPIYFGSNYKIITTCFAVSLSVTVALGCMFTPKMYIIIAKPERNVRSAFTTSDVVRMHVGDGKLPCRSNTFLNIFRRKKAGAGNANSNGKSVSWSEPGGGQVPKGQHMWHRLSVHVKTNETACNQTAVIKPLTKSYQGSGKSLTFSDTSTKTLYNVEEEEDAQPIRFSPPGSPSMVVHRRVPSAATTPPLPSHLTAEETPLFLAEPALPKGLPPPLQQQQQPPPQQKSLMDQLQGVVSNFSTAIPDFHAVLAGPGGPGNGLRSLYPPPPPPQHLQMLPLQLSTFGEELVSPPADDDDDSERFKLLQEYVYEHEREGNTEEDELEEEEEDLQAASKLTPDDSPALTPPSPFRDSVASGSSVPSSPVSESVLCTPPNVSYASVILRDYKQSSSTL

[7] = biological target: T3, Metabotropic glutamate receptor 1; assay: Antagonist activity at human recombinant mGlu1 stably expressed in golden hamster AV12 cell membrane co-expressing Gq assessed as reduction in glutamate-induced calcium influx incubated for 90 to 120 min by Fluo-4-AM dye based FLIPR assay; type: functional, cell membranes
[8] = biological target: T4, Metabotropic glutamate receptor 4 (Homo sapiens, UniProt Q14833); assay: Agonist activity at human recombinant mGlu4 stably expressed in golden hamster AV12 cell membrane co-expressing Galpha15 assessed as assessed as increase in calcium influx incubated for 90 to 120 min by Fluo-4-AM dye based FLIPR assay; type: functional, cell membranes
T4 sequence (Q14833 whole entry): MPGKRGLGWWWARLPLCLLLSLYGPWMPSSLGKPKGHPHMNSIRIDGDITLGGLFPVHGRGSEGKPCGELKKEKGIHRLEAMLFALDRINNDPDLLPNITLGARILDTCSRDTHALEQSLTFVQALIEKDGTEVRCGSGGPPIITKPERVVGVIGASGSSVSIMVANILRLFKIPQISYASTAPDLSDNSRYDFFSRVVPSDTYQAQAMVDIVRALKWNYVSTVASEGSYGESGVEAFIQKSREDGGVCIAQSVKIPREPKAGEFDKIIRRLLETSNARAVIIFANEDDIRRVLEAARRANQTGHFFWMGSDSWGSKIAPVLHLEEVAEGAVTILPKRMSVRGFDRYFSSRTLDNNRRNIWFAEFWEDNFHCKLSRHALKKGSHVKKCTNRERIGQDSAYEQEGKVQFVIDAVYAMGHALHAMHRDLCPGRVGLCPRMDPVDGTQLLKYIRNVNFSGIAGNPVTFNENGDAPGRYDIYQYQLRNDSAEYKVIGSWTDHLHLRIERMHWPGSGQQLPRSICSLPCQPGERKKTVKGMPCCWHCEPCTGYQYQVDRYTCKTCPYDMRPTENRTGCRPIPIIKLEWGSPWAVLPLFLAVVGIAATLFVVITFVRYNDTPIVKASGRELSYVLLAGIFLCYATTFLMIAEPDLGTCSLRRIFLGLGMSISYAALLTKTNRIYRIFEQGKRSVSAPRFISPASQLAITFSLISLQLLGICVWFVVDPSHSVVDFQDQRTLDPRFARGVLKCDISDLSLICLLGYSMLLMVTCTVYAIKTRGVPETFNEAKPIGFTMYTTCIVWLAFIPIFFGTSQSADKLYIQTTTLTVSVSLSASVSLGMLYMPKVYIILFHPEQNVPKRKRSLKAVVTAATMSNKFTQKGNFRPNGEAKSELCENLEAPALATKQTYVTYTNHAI

[9] = biological target: T4, Metabotropic glutamate receptor 4; assay: Antagonist activity human recombinant mGlu4 stably expressed in golden hamster AV12 cell membrane co-expressing Galpha15 assessed as reduction in glutamate-induced calcium influx incubated for 90 to 120 min by Fluo-4-AM dye based FLIPR assay; type: functional, cell membranes
[10] = biological target: T1, Metabotropic glutamate receptor 6; assay: Antagonist activity at human recombinant mGlu6 stably expressed in golden hamster AV12 cell membrane co-expressing Galpha15 assessed as reduction in glutamate-induced calcium influx incubated for 90 to 120 min by Fluo-4-AM dye based FLIPR assay; type: functional, cell membranes
[11] = biological target: T5, Metabotropic glutamate receptor 5 (Homo sapiens, UniProt P41594); assay: Agonist activity at human recombinant mGlu5 stably expressed in golden hamster AV12 cell membrane co-expressing Gq assessed as assessed as increase in calcium influx incubated for 90 to 120 min by Fluo-4-AM dye based FLIPR assay; type: functional, cell membranes
T5 sequence (P41594 whole entry): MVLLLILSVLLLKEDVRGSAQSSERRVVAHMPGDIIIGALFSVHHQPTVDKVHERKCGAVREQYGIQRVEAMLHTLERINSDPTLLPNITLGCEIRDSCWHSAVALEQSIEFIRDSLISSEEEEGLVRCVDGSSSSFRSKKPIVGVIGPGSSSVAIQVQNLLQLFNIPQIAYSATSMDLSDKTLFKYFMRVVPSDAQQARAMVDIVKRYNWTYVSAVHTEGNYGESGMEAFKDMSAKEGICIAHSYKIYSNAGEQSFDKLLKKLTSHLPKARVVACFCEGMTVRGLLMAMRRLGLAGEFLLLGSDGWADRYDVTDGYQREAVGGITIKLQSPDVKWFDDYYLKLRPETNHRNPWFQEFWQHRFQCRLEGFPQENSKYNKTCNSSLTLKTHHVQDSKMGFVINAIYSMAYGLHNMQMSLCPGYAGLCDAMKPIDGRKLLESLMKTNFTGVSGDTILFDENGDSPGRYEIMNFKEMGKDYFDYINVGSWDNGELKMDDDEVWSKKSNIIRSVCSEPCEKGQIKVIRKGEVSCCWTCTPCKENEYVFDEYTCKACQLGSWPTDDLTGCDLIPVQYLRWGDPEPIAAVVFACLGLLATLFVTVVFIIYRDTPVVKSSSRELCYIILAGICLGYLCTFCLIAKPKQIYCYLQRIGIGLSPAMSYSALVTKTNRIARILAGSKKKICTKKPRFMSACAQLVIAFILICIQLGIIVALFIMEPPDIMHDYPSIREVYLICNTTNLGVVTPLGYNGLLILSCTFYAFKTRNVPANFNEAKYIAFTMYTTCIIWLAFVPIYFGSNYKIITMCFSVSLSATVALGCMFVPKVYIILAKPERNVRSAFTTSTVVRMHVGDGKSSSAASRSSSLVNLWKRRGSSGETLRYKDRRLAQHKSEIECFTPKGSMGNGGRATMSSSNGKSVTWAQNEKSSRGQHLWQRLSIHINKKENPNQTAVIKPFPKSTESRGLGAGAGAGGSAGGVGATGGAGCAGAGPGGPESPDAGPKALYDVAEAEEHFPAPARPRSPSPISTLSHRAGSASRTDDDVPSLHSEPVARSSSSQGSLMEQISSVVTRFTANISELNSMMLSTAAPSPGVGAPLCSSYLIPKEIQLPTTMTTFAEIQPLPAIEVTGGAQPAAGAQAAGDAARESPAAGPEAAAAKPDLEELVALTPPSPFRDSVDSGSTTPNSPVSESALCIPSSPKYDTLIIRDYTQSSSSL

[12] = biological target: T5, Metabotropic glutamate receptor 5; assay: Antagonist activity at human recombinant mGlu5 stably expressed in golden hamster AV12 cell membrane co-expressing Gq assessed as reduction in glutamate-induced calcium influx incubated for 90 to 120 min by Fluo-4-AM dye based FLIPR assay; type: functional, cell membranes
[13] = Aqueous solubility of compound at pH 7.4; type: physicochemical; conditions: aqueous medium
[14] = Metabolic stability of compound in mouse hepatocytes assessed as parent compound loss at 2 uM; type: ADME, cell-based, Hepatocyte; conditions: read-out: Drug degradation
[15] = Metabolic stability of compound in rat hepatocytes assessed as parent compound loss at 2 uM; type: ADME, cell-based, Hepatocyte; conditions: read-out: Drug degradation
[16] = Metabolic stability of compound in dog hepatocytes assessed as parent compound loss at 2 uM; type: ADME, cell-based, Canis lupus familiaris, Hepatocyte; conditions: read-out: Drug degradation
[17] = Metabolic stability of compound in human hepatocytes assessed as parent compound loss at 2 uM; type: ADME, cell-based, Hepatocyte; conditions: read-out: Drug degradation
CYP3A4 = CYP3A4 (Homo sapiens, UniProt P08684); assay: Inhibition of human CYP3A4 at 10 uM relative to control; type: ADME
CYP2D6 = CYP2D6 (Homo sapiens, UniProt P10635); assay: Inhibition of human CYP2D6 at 10 uM relative to control; type: ADME
CYP2C9 = CYP2C9 (Homo sapiens, UniProt P11712); assay: Inhibition of human CYP2C9 at 10 uM relative to control; type: ADME
[18] = Protein binding in rat plasma assessed as unbound fraction; type: ADME, cell-free
[19] = Protein binding in human plasma assessed as unbound fraction; type: ADME, cell-free
[20] = AUC (0 to 24 hrs) in CD1 mouse plasma in fasting state at 1.1 mg/kg, ip administered as single dose measured after 24 hrs by LC-MS/MS analysis; type: ADME, organism-based; design: route intraperitoneal, dose 1.1 mg/kg, time 24 hrs
[21] = AUC (0 to 24 hrs) in CD1 mouse plasma in fasting state at 3.3 mg/kg, ip administered as single dose measured after 24 hrs by LC-MS/MS analysis; type: ADME, organism-based; design: route intraperitoneal, time 24 hrs, dose 3.3 mg/kg
[22] = AUC (0 to 24 hrs) in CD1 mouse plasma in fasting state at 11 mg/kg, ip administered as single dose measured after 24 hrs by LC-MS/MS analysis; type: ADME, organism-based; design: route intraperitoneal, dose 11 mg/kg, time 24 hrs
[23] = Cmax in CD1 mouse plasma in fasting state at 1.1 mg/kg, ip administered as single dose measured after 24 hrs by LC-MS/MS analysis; type: ADME, organism-based; design: route intraperitoneal, dose 1.1 mg/kg, time 24 hrs
[24] = Cmax in CD1 mouse plasma in fasting state at 3.3 mg/kg, ip administered as single dose measured after 24 hrs by LC-MS/MS analysis; type: ADME, organism-based; design: route intraperitoneal, dose 3.3 mg/kg, time 24 hrs
[25] = Cmax in CD1 mouse plasma in fasting state at 11 mg/kg, ip administered as single dose measured after 24 hrs by LC-MS/MS analysis; type: ADME, organism-based; design: route intraperitoneal, dose 11 mg/kg, time 24 hrs
[26] = Tmax in CD1 mouse plasma in fasting state at 1.1 mg/kg, ip administered as single dose measured after 24 hrs by LC-MS/MS analysis; type: ADME, organism-based
[27] = Tmax in CD1 mouse plasma in fasting state at 3.3 mg/kg, ip administered as single dose measured after 24 hrs by LC-MS/MS analysis; type: ADME, organism-based
[28] = Tmax in CD1 mouse plasma in fasting state at 11 mg/kg, ip administered as single dose measured after 24 hrs by LC-MS/MS analysis; type: ADME, organism-based
[29] = Half life in CD1 mouse plasma in fasting state at 1.1 mg/kg, ip administered as single dose measured after 24 hrs by LC-MS/MS analysis; type: ADME, organism-based
[30] = Half life in CD1 mouse plasma in fasting state at 3.3 mg/kg, ip administered as single dose measured after 24 hrs by LC-MS/MS analysis; type: ADME, organism-based
[31] = Half life in CD1 mouse plasma in fasting state at 11 mg/kg, ip administered as single dose measured after 24 hrs by LC-MS/MS analysis; type: ADME, organism-based
[32] = Dose normalized AUC in CD1 mouse plasma in fasting state at 1.1 mg/kg, ip administered as single dose measured after 24 hrs by LC-MS/MS analysis; type: ADME, organism-based; conditions: in vivo
[33] = Dose normalized AUC in CD1 mouse plasma in fasting state at 3.3 mg/kg, ip administered as single dose measured after 24 hrs by LC-MS/MS analysis; type: ADME, organism-based; conditions: in vivo
[34] = Dose normalized AUC in CD1 mouse plasma in fasting state at 11 mg/kg, ip administered as single dose measured after 24 hrs by LC-MS/MS analysis; type: ADME, organism-based; conditions: in vivo
[35] = Clearance in male Sprague-Dawley rat at 0.3 to 10 mg/kg, iv; type: ADME, organism-based; conditions: in vivo, dose 0.3-10 mg/kg
[36] = Unbound brain concentration in CD1 mouse at 1 mg/kg, ip administered as single dose by LC-MS/MS analysis; type: ADME, organism-based; conditions: in vivo
[37] = Unbound brain concentration in CD1 mouse at 3 mg/kg, ip administered as single dose by LC-MS/MS analysis; type: ADME, organism-based; conditions: in vivo
[38] = Unbound brain concentration in CD1 mouse at 10 mg/kg, ip administered as single dose by LC-MS/MS analysis; type: ADME, organism-based; conditions: in vivo
[39] = Unbound plasma concentration in CD1 mouse at 1 mg/kg, ip administered as single dose by LC-MS/MS analysis; type: ADME, organism-based; conditions: in vivo
[40] = Unbound plasma concentration in CD1 mouse at 3 mg/kg, ip administered as single dose by LC-MS/MS analysis; type: ADME, organism-based; conditions: in vivo
[41] = Unbound plasma concentration in CD1 mouse at 10 mg/kg, ip administered as single dose by LC-MS/MS analysis; type: ADME, organism-based; conditions: in vivo
Mus musculus [42] = assay: Antidepressant activity in male Swiss mouse assessed as reduction in immobility time at 1 to 10 mg/kg, ip measured for last 4 mins of 6 mins test by forced swim test relative to control; type: functional; conditions: dose 1-10 mg/kg, 0.1 h
Mus musculus [43] = assay: Antidepressant activity in ip dosed male Swiss mouse assessed as reduction in immobility time measured for last 4 mins of 6 mins test by forced swim test; type: functional; conditions: 0.1 h

With `Cl.N[C@]1(C(=O)O)[C@@H]2[C@@H](C(=O)O)[C@@H]2[C@H](O)[C@H]1CSc1ccc(F)c(F)c1` the IC50 [1] was 1.26 µM, the EC50 [2] was greater than 25 µM and the EC50 [3] was greater than 16.7 µM. The Ki [4] was 0.0025 µM, the IC50 [5] was 0.0025 µM and the EC50 [6] was greater than 25 µM. The IC50 [7] was greater than 12.5 µM, the EC50 [8] was greater than 25 µM and the IC50 [9] was greater than 12.5 µM. For the same compound, the IC50 [10] was 4.01 µM, the EC50 [11] was greater than 25 µM and the IC50 [12] was greater than 12.5 µM. For the same compound, the solubility [13] was greater than 100 µM, the metabolised at 2 µM [14] was less than 15% and the metabolised at 2 µM [15] was less than 15%. The metabolised at 2 µM [16] was less than 15%, the metabolised at 2 µM [17] was less than 15% and the inhibition at 10 µM (CYP3A4) was less than 10%. It also gave an inhibition at 10 µM (CYP2D6) of less than 10%, an inhibition at 10 µM (CYP2C9) of less than 10% and a fraction unbound [18] greater than 0.6. For the same compound, the fraction unbound [19] was greater than 0.6, the AUC(0-t) at 24 h [20] was 5.03 µM·h and the AUC(0-t) at 24 h [21] was 15.2 µM·h. For the same compound, the AUC(0-t) at 24 h [22] was 45.5 µM·h, the Cmax [23] was 4.17 µM and the Cmax [24] was 20.6 µM. It also gave a Cmax [25] of 38.4 µM, a Tmax [26] of 15 min and a Tmax [27] of 15 min. For the same compound, the Tmax [28] was 15 min, the half-life [29] was 42 min and the half-life [30] was 30 min. It also gave a half-life [31] of 64.2 min, an AUC/dose [32] of 4571 nM·h/mg/kg and an AUC/dose [33] of 4601 nM·h/mg/kg. For the same compound, the AUC/dose [34] was 4134 nM·h/mg/kg, the clearance [35] was 5.83 mL/min/kg and the “Drug uptake(free)” value [36] was 8.1 nM. For the same compound, the “Drug uptake(free)” value [37] was 47.3 nM, the “Drug uptake(free)” value [38] was 151.9 nM and the “Cp(f)” value [39] was 0.84 µM. For the same compound, the “Cp(f)” value [40] was 3.956 µM, the “Cp(f)” value [41] was 7.731 µM and the “%max” value (Mus musculus [42]) was 67.4%. The ED60 (Mus musculus [43]) was 4.9 mg/kg.
